From US9598459B2, “Pharmaceutical compositions and methods” (priority 2015, dated 2017)
Where “and” joins values, the source holds several entries; their conditions need not be identical. Equal entries are not always repeated. Where two headings read alike, the source gives them in different places.

Assays:
in vitro [1] = details: dog
[2] = Cytotoxicity on primary human foreskin fibroblasts; details: human
[3] = cited from earlier work
cytosolic GRs [4] = target: T1, cytosolic GRs (Homo sapiens, UniProt P04150); details: Peeters et al., 2008; cited from earlier work
T1 sequence (P04150 1-777): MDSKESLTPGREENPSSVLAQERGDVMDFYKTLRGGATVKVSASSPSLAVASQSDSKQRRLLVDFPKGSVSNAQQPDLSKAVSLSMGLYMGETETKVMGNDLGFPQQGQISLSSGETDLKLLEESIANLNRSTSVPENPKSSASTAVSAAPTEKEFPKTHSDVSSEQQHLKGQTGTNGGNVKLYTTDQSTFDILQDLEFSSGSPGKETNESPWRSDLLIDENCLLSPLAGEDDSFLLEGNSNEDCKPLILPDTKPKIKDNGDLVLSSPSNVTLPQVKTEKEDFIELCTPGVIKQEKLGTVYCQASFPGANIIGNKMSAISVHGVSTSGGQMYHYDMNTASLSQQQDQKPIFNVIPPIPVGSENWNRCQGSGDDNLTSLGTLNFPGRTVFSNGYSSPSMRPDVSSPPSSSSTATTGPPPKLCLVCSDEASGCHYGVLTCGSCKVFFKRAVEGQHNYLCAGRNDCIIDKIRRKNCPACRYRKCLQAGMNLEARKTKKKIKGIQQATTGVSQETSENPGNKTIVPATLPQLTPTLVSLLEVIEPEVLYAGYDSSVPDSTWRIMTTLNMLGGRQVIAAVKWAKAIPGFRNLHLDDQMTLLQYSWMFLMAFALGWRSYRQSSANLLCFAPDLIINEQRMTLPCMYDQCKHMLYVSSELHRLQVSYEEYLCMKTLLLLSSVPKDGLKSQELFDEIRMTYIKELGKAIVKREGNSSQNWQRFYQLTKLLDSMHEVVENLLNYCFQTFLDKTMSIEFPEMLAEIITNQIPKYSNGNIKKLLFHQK

cytosolic GRs [5] = target: T1, cytosolic GRs; assay: Binding to cytosolic glucocorticoid receptors
[6] = target: cytosolic progesterone receptors (PR) (Homo sapiens, UniProt P06401); details: Peeters et al., 2008; cited from earlier work
cytosolic progesterone receptors (PR), sequence (P06401 whole entry): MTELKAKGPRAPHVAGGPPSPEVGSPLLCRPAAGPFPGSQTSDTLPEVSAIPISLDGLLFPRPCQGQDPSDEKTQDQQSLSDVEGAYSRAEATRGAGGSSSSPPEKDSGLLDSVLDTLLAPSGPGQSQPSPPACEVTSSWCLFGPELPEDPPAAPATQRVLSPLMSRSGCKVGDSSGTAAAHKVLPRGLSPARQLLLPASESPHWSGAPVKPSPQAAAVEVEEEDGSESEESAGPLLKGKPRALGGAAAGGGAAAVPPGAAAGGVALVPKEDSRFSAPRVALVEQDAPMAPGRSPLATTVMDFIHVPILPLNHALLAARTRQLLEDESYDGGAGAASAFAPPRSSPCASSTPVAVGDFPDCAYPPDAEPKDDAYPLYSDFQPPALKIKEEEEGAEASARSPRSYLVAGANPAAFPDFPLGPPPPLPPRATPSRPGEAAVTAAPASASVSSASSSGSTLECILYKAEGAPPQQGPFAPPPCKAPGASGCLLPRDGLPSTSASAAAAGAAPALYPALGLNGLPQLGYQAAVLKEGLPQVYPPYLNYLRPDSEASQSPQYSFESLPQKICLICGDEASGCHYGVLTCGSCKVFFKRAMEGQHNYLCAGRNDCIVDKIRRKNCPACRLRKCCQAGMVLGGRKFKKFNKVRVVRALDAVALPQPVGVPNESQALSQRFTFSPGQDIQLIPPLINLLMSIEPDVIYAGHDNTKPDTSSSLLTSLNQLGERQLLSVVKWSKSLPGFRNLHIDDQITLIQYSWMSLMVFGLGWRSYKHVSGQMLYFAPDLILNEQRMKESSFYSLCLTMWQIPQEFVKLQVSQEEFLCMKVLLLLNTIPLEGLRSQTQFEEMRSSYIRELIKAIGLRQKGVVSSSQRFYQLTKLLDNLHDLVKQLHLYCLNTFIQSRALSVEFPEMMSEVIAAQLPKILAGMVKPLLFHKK

in vitro [7] = details: African green monkey
[8] = Cytotoxicity on RD host cells; type: cell-based; details: human, RD cells
in vitro [9] = assay: in vitro
[10] = rats, twice daily 4 mg kg−1 po; cited from earlier work
[11] = Phosphatidylcholine binding (thin-layer chromatographic run); details: words
in vitro [12] = details: African green monkey, Cytotoxicity CC50
[13] = Toxicity in RAW267.4 cells (neutral red); details: mouse, RAW267.4 cells, CC50, Neutral Red (Toxicity), Example 11
HIV-1 LAV = assay: Inhibition of inducible HIV-1 LAV replication in OM-10.1 (RT values); type: cell-based, human immunodeficiency virus type 1; details: for RT Values: SAMPLE 1-3, MEAN
[14] = test system: Japanese encepahalitis virus SA-14; assay: Japanese encephalitis virus antiviral screen in Vero 76; type: cell-based; details: JEV SA-14, Vero 76
OM-10.1 cells = assay: Toxicity in OM-10.1 (Cell Titer 96); details: for TOXICITY VALUES (Cell Titer 96): SAMPLE 1-3, MEAN
RD = assay: Cytotoxicity on RD host cells; type: cell-based
[15] = test system: West Nile virus Kern 515, WN02; assay: West Nile virus antiviral screen in Vero 76; type: cell-based
[16] = Visual (Cytopathic effect/Toxicity), unit from Conc. Range

**Q.** With CC#C[C@]1(O)CC[C@H]2[C@@H]3CCC4=CC(=O)CCC4=C3[C@@H](c3ccc4c(c3)OCO4)C[C@@]21C [PT150, (11β,17β)-11-(1,3-benzodioxol-5-yl)-17-hydroxy-17-(1-propynyl)-estra-4,9-dien-3-one] as the molecule, how does the CC50 (in vitro [1]; CC50) read?
**A.** 29 µg/mL

**Q.** What about the CC50 (in vitro [1]; Cytotoxicity 50% CC50) of the same molecule?
**A.** 17 µM

**Q.** And the CC50 ([2]; primary HFF-1 human foreskin fibroblasts, CC50)?
**A.** > 150 µM

**Q.** And the CC50 ([2]; primary HFF-1 human foreskin fibroblasts, CC50, Cytotoxicity control, Primary HFF-1, CellTiter-Glo)?
**A.** > 150 µM

**Q.** And the CC50 ([2]; primary human foreskin fibroblasts (HFF / HFF-1), CC50, HFF / HFF-1 primary cells)?
**A.** > 150 µM

**Q.** What about the CC50 ([2]; primary human foreskin fibroblasts (HFF-1), CC50, Herpes simplex virus type 1 screen, Primary HFF-1, CellTiter-Glo) of the same molecule?
**A.** > 150 µM

**Q.** What about the “adverse indications of cell toxicity” value ([3]; Phase II, patients, 900 mg per day for 2 weeks) of the same molecule?
**A.** no noted adverse indications of cell toxicity

**Q.** And the “significant toxicities and side effects” value ([3]; phase I and phase II clinical trials)?
**A.** none were identified

**Q.** And the “bound to cytosolic GRs, value” (cytosolic GRs [4])?
**A.** 365%

**Q.** What about the “selectivity ratio (GR/PR)” value (cytosolic GRs [5]) of the same molecule?
**A.** 57

**Q.** What about the “value for the cytosolic progesterone receptors (PR)” value [6] of the same molecule?
**A.** 6.4%

**Q.** And the CC50 (in vitro [7])?
**A.** 10.9 µM

**Q.** And the CC50 ([8]; Cytotoxicity 50% CC50, Enterovirus D68 screen, Tables 5-6)?
**A.** 10.2 µM

**Q.** What about the CC50 ([8]; Enterovirus 68 screen, Table 4, read-out: CC50) of the same molecule?
**A.** 10.2 µM

**Q.** And the CC50 ([8]; Enterovirus D68 screen, Neutral red, read-out: CC50)?
**A.** 2.6 µg/mL

**Q.** What about the CC50 ([8]; Enterovirus D68 screen, Visual, read-out: CC50) of the same molecule?
**A.** 3.2 µg/mL

**Q.** What about the CC50 (in vitro [9]; CC50) of the same molecule?
**A.** > 100 µM

**Q.** And the CC50 (in vitro [9]; human, CC50)?
**A.** 7.4 µM and 3.3 µg/mL

**Q.** What about the CC50 (in vitro [9]; human, Cytotoxicity 50% CC50) of the same molecule?
**A.** 7.4 µM

**Q.** And the embryos lost [10]?
**A.** ~100%

**Q.** What about the “binding to PC” value [11] of the same molecule?
**A.** not to PC

**Q.** What about the CC50 (in vitro [12]) of the same molecule?
**A.** 44.3 µM

**Q.** What about the CC50 [13] of the same molecule?
**A.** 33 µM

**Q.** Which results are given for CC#CC1(O)CCC2C3CCC4=CC(=NNC(N)=S)CCC4=C3C(c3ccc4c(c3)OCO4)CC21C.CC#CC1(O)CCC2C3CCC4=CC(=O)CCC4=C3C(c3ccc4c(c3)OCO4)CC21C.CC(C)=O.CCO.O (stereo not drawn) [PT155, ⅓ (11β,17β)-17-Hydroxy-11-[3,4-(methylenedioxy)phenyl]-17-(1-propyn-1-yl)estra-4,9-dien-3-one (ORG34517)×(2EZ)-2-{(11β,17β)-17-hydroxy-11-[3,4-(methylenedioxy)phenyl]-17-(1-propyn-1-yl)estra-4,9-dien-3-ylidene}hydrazinecarbothioamide [71.8% (E), 28.2% (Z)] hemihydrate×¾% acetone× ⅛ ethanol]?
**A.** CC50 (Vero 76): 45.4 µM; % VC (HIV-1 LAV; 0.01 μM): 100.0%; RT Values (HIV-1 LAV; 0.01 μM): 32320 cpm and 29982 cpm and 29144 cpm; % VC (HIV-1 LAV; 0.03 μM): 107.7%; RT Values (HIV-1 LAV; 0.03 μM): 33018 cpm and 33056 cpm and 32387 cpm; % VC (HIV-1 LAV; 0.10 μM): 99.8%; RT Values (HIV-1 LAV; 0.10 μM): 29801 cpm and 29663 cpm and 31726 cpm; % VC (HIV-1 LAV; 1.00 μM): 82.2%; RT Values (HIV-1 LAV; 1.00 μM): 23474 cpm and 26693 cpm and 24955 cpm; % VC (HIV-1 LAV; 3.16 μM): 57.9%; RT Values (HIV-1 LAV; 3.16 μM): 16156 cpm and 21122 cpm and 15662 cpm; % VC (HIV-1 LAV; 10.0 μM): 28.9%; RT Values (HIV-1 LAV; 10.0 μM): 8592 cpm and 7827 cpm and 10011 cpm; % VC (HIV-1 LAV; 31.6 μM): 15.8%; RT Values (HIV-1 LAV; 31.6 μM): 4254 cpm and 4765 cpm and 5466 cpm; % VC (HIV-1 LAV; 100 μM): 0.8%; IC50 (HIV-1 LAV; OM-10.1): 4.33 µM; IC90 (HIV-1 LAV; OM-10.1): 49.4 µM; IC 95% (HIV-1 LAV; OM-10.1): 72.4 µM; EC50 (HIV-1 LAV; OM-10.1, Table 7, read-out: EC50): 4.33 µM; EC90 (HIV-1 LAV; OM-10.1, Table 7, read-out: EC90): 49.4 µM; EC50 ([14]; Neutral Red (Cytopathic effect/Toxicity)): 2.6 µg/mL; EC50 [14, 16]: 2.6 µg/mL; % CC (OM-10.1 cells; 0.01 μM): 93.9%; TOXICITY VALUES (Cell Titer 96) (OM-10.1 cells; 0.01 μM): 0.707 O.D. @ 490/650 nm and 0.669 O.D. @ 490/650 nm and 0.567 O.D. @ 490/650 nm; % CC (OM-10.1 cells; 0.03 μM): 105.6%; TOXICITY VALUES (Cell Titer 96) (OM-10.1 cells; 0.03 μM): 0.749 O.D. @ 490/650 nm and 0.794 O.D. @ 490/650 nm and 0.642 O.D. @ 490/650 nm; % CC (OM-10.1 cells; 0.10 μM): 110.0%; TOXICITY VALUES (Cell Titer 96) (OM-10.1 cells; 0.10 μM): 0.867 O.D. @ 490/650 nm and 0.820 O.D. @ 490/650 nm and 0.590 O.D. @ 490/650 nm; % CC (OM-10.1 cells; 1.00 μM): 119.25%; TOXICITY VALUES (Cell Titer 96) (OM-10.1 cells; 1.00 μM): 0.937 O.D. @ 490/650 nm and 0.911 O.D. @ 490/650 nm and 0.618 O.D. @ 490/650 nm; % CC (OM-10.1 cells; 3.16 μM): 109.6%; TOXICITY VALUES (Cell Titer 96) (OM-10.1 cells; 3.16 μM): 0.896 O.D. @ 490/650 nm and 0.800 O.D. @ 490/650 nm and 0.572 O.D. @ 490/650 nm; % CC (OM-10.1 cells; 10.0 μM): 105.7%; TOXICITY VALUES (Cell Titer 96) (OM-10.1 cells; 10.0 μM): 0.828 O.D. @ 490/650 nm and 0.761 O.D. @ 490/650 nm and 0.599 O.D. @ 490/650 nm; % CC (OM-10.1 cells; 31.6 μM): 93.4%; TOXICITY VALUES (Cell Titer 96) (OM-10.1 cells; 31.6 μM): 0.714 O.D. @ 490/650 nm and 0.682 O.D. @ 490/650 nm and 0.536 O.D. @ 490/650 nm; % CC (OM-10.1 cells; 100 μM): 112.5%; TOXICITY VALUES (Cell Titer 96) (OM-10.1 cells; 100 μM): 0.777 O.D. @ 490/650 nm and 0.775 O.D. @ 490/650 nm; TC 90% (OM-10.1 cells; OM-10.1): >100 µM; TC 95% (OM-10.1 cells; OM-10.1): >100 µM; CC50 (OM-10.1 cells; OM-10.1, Table 7): > 100 µM; CC50 (OM-10.1 cells; read-out: TC 50%, OM-10.1): > 100 µM; CC50 (RD; Enterovirus D68 screen, Neutral red): 8.1 µg/mL; CC50 (RD; Enterovirus D68 screen, Visual): 3.2 µg/mL; CC50 (RD; read-out: Cytotoxicity 50% CC50, Enterovirus D68 screen, Tables 5-6): 5.8 µM; EC50 ([15]; Neutral Red): >55 µg/mL; EC50 [15, 16]: >22 µg/mL; cellular growth at fixed 100 μM concentration (Vero): (96.1) %; CC50 (PBMC): 82.6 µM; binding to PC [11]: not to PC; CC50 (MA-104): 17 µM
